IC50 data for 14 compounds are collected here from patent US20170305882A1, “BENZYL SUBSTITUTED INDAZOLES AS BUB1 KINASE INHIBITORS” (Bayer Pharma Aktiengesellschaft, priority 2014, published 2017).

For test [1], the target named is T1, (recombinant) catalytic domain of human Bub1 (amino acids 704-1085) (Homo sapiens, UniProt O43683).
T1 construct: catalytic domain of human Bub1 (amino acids 704-1085); 6xHis (N); made in house; host or cells: Hi5 insect cells
Put plainly: Bub1 kinase assay (TR-FRET). It is filed as biochemical. To be noted: ATP 10 μM, 60 min reaction, pH 7.5; read-out: Biological Assay 1: Bub1 kinase assay median IC50.

For test [2], the system named is HeLa human cervical tumor cells. Kind of test: Proliferation Assay (HeLa + Paclitaxel). It counts as cell-based. To be noted: 3 nM paclitaxel, test substance 92 hours; read-out: Biological Assay 3: Proliferation Assay (HeLa + Paclitaxel) IC50. From the text:
Proliferation Assay (HeLa+Paclitaxel):

Test [3] relates to histone 2A phosphorylation (kinase activity of Bub1). Kind of test: H2A Formation-Assay (cell-based mechanistic assay, co-treatment with Nocodazole). The following applies: 16 h, read-out: Biological Assay 4.1: H2A Formation IC50.
Experimental: Cell-Based Mechanistic Assay: Changes of Phosphorylation Status of Histone 2A by Inhibition of Kinase Activity of Bub1
This assay determines the suppression of histone 2A phosphorylation by a Bub1 kinase inhibitor during co-treatment with Nocodazole. 25000 cells (cells were ordered from ATCC) were seeded in 96well plate for 5 h at 37° C. Cells were treated with Nocodazole (1 μg/ml) and varying concentrations (between 3 nM and 10 μM) of test compounds for 16 h. Cells were fixed (20 min, Fixing solution R&D), washed three times with PBS and blocked with Odyssey blocking buffer before incubating with the primary antibody against phosphorylated H2A (5 μg/ml ABIN482721) overnight at 2-8° C. After washing, secondary IRDye-labeled antibody mix with cell stains was added for 1 h and washed again with PBS. Plates were scanned with LICor Odyssey Infrared Imager CLx at 800 nm for P-H2A and at 700 nm for cell stains Draq5/Sapphire. The quotient of 800 nm and 700 nm for Nocodazole only treated cells was set as 100% and the quotient of 800 nm and 700 nm of untreated cells was set as 0%. […] The IC50 values were determined by means of a 4 parameter fit.
Test [4] relates to pre-induced phospho-histone 2A (kinase activity of Bub1). Put plainly: H2A Abrogation-Assay (cell-based mechanistic assay, pre-treatment with Nocodazole). The following applies: Nocodazole 16 h, then test compound 1 h; read-out: Biological Assay 4:2: H2A Abrogation IC50. From the text: Biological Assay 4.2: Abrogation-Assay
This assay measures the inhibition of histone 2A phosphorylation, which was induced by pre-treatment of the cells with Nocodazole, by a Bub1 kinase inhibitor.

For test [5], the system named is HeLa human cervical tumor cells. Put plainly: Proliferation assay (HeLa cell line). It is filed as cell-based. The following applies: 96 h, 4 days incubation, crystal violet, read-out: Biological Assay 2: Proliferation assay (HeLa cell line) median IC50. From the text: Human tumour cells were originally obtained from the American Type Culture Collection (ATCC), the Deutsche Sammlung von Mikroorganismen und Zellkulturen (DSMZ, German Collection of Microorganisms and Cell Cultures), or Epo GmbH Berlin.

Where only a bound is given, the exact number is not on record here.

T1 sequence (O43683 704-1085): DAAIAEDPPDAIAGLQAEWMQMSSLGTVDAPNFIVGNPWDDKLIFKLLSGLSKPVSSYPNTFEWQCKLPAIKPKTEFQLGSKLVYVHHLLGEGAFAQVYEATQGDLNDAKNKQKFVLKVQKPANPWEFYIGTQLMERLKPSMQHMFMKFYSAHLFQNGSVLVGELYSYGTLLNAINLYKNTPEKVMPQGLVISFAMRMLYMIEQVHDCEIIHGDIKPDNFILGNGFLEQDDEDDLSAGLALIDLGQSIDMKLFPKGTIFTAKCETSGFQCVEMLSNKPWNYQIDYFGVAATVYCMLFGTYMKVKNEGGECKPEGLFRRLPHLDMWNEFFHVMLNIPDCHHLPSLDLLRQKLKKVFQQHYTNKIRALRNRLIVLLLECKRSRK

With `Cc1nccc(Nc2nc(-c3nn(Cc4c(F)cc(OCC5CC5)cc4F)c4ccccc34)ncc2OCCCO)n1` [Example 2-1-24, 3-[(2-{1-[4-(cyclopropylmethoxy)-2,6-difluorobenzyl]-1H-indazol-3-yl}-4-[(2-methylpyrimidin-4-yl)amino]pyrimidin-5-yl)oxy]propan-1-ol], the IC50 in test [1] was found to be 23 nM; in test [2], 330 nM; in test [3], 2.1 nM; in test [4], 0.85 nM; in test [5] it was 9940 nM.
The corresponding values for `CCOc1cc(F)c(Cn2nc(-c3ncc(OCCCO)c(Nc4ccnc(NC(C)=O)c4C)n3)c3ccccc32)c(F)c1` [Example 2-1-17, N-[4-({2-[1-(4-ethoxy-2,6-difluorobenzyl)-1H-indazol-3-yl]-5-(3-hydroxypropoxy)pyrimidin-4-yl}amino)-3-methylpyridin-2-yl]acetamide] are 9.2 nM, 200 nM, 1.7 nM, 3.9 nM and above 10000 nM.
On the same counts, the results for `CCOc1cc(F)c(Cn2nc(-c3ncc(OCCCO)c(Nc4ccncc4C4CC4)n3)c3ccccc32)c(F)c1` [Example 2-1-3, 3-({4-[(3-cyclopropylpyridin-4-yl)amino]-2-[1-(4-ethoxy-2,6-difluorobenzyl)-1H-indazol-3-yl]pyrimidin-5-yl}oxy)propan-1-ol] are 11 nM, 54 nM, 0.97 nM, 0.93 nM and 3700 nM.
`Cc1nccc(Nc2nc(-c3nn(Cc4c(F)cc(OCC(F)F)cc4F)c4ccccc34)ncc2OCCCO)n1` [Example 2-1-21, 3-[(2-{1-[4-(2,2-difluoroethoxy)-2,6-difluorobenzyl]-1H-indazol-3-yl}-4-[(2-methylpyrimidin-4-yl)amino]pyrimidin-5-yl)oxy]propan-1-ol]: the IC50 is 11 nM in test [1]; 170 nM in test [2]; 26 nM in test [3]; 56 nM in test [4]; above 10000 nM in test [5].
The corresponding values for `OCCCOc1cnc(-c2nn(Cc3c(F)cc(OCC(F)F)cc3F)c3ccccc23)nc1Nc1ccncc1Cl` [Example 2-1-26, 3-[(4-[(3-chloropyridin-4-yl)amino]-2-{1-[4-(2,2-difluoroethoxy)-2,6-difluorobenzyl]-1H-indazol-3-yl}pyrimidin-5-yl)oxy]propan-1-ol] are 14 nM, 64 nM, 14 nM, 38 nM and 3790 nM.
The corresponding values for `OCCCOc1cnc(-c2nn(Cc3c(F)cc(OCC4CC4)cc3F)c3ccccc23)nc1Nc1ccncc1Cl` [Example 2-1-13, 3-[(4-[(3-chloropyridin-4-yl)amino]-2-{1-[4-(cyclopropylmethoxy)-2,6-difluorobenzyl]-1H-indazol-3-yl}pyrimidin-5-yl)oxy]propan-1-ol] are 11 nM, 180 nM, 360 nM, 64 nM and 3900 nM.
On the same counts, the results for `CCOc1cc(F)c(Cn2nc(-c3ncc(OCCCO)c(Nc4cc(C)ncc4C)n3)c3ccccc32)c(F)c1` [Example 2-1-11, 3-{[4-[(2,5-dimethylpyridin-4-yl)amino]-2-[1-(4-ethoxy-2,6-difluorobenzyl)-1H-indazol-3-yl]pyrimidin-5-yl}oxy)propan-1-ol] are 21 nM, 260 nM, 26 nM, 17 nM and 3200 nM.
As for `CCOc1cc(F)c(Cn2nc(-c3ncc(OCCCO)c(Nc4ccnc(NC(=O)C5CC5)c4)n3)c3ccccc32)c(F)c1` [Example 2-1-15, N-[4-({2-[1-(4-Ethoxy-2,6-difluorobenzyl)-1H-indazol-3-yl]-5-(3-hydroxypropoxy)pyrimidin-4-yl}amino)pyridin-2-yl]cyclopropancarboxamide], the IC50 in test [1] stood at 8 nM; in test [2], 140 nM; in test [3] it was 37 nM; in test [4], 4.6 nM; in test [5], 3000 nM.
On the same counts, the results for `CCOc1cc(F)c(Cn2nc(-c3ncc(OCCCO)c(Nc4ccnc(F)c4)n3)c3ccccc32)c(F)c1` [Example 2-1-10, 3-({2-[1-(4-ethoxy-2,6-difluorobenzyl)-1H-indazol-3-yl]-4-[(2-fluoropyridin-4-yl)amino]pyrimidin-5-yl}oxy)propan-1-ol] are 15 nM, 1400 nM, 44 nM, 23 nM and 9000 nM.
In the case of `CCOc1cc(F)c(Cn2nc(-c3ncc(OCCCO)c(Nc4ccncn4)n3)c3ccccc32)c(F)c1` [Example 2-1-9, 3-({2-[1-(4-ethoxy-2,6-difluorobenzyl)-1H-indazol-3-yl]-4-(pyrimidin-4-ylamino)pyrimidin-5-yl}oxy)propan-1-ol], the IC50 in test [1] is 3.8 nM; in test [2], 330 nM; in test [3], 171 nM; in test [4] it was 33 nM; in test [5], above 10000 nM.
On the same counts, the results for `CCOc1cc(F)c(Cn2nc(-c3ncc(OCCCO)c(Nc4ccnc(C)c4)n3)c3ccccc32)c(F)c1` [Example 2-1-4, 3-({2-[1-(4-ethoxy-2,6-difluorobenzyl)-1H-indazol-3-yl]-4-[(2-methylpyridin-4-yl)amino]pyrimidin-5-yl}oxy)propan-1-ol] are 12 nM, 100 nM, 8.4 nM, 80 nM and 3000 nM.
As to `CCOc1cc(F)c(Cn2nc(-c3ncc(OCCCO)c(Nc4ccnc(C)n4)n3)c3ccccc32)c(F)c1` [Example 2-1-7, 3-({2-[1-(4-ethoxy-2,6-difluorobenzyl)-1H-indazol-3-yl]-4-[(2-methylpyrimidin-4-yl)amino]pyrimidin-5-yl}oxy)propan-1-ol], the IC50 was 7 nM in test [1]; 190 nM in test [2]; 87 nM in test [3]; 48 nM in test [4]; above 10000 nM in test [5].
As for `CCOc1cc(F)c(Cn2nc(-c3ncc(OCCCO)c(Nc4cc(C)nc(C)n4)n3)c3ccccc32)c(F)c1` [Example 2-1-14, 3-({4-[(2,6-Dimethylpyrimidin-4-yl)amino]-2-[1-(4-ethoxy-2,6-difluorobenzyl)-1H-indazol-3-yl]pyrimidin-5-yl}oxy)propan-1-ol], the IC50 in test [1] is above 20000 nM; in test [2], 39 nM; in test [3], 8.7 nM; in test [4], 0.92 nM; in test [5], above 10000 nM.
The corresponding values for `OCCCOc1cnc(-c2nn(Cc3c(F)cc(OCC(F)(F)F)cc3F)c3ccccc23)nc1Nc1ccncc1Cl` [Example 2-1-20, 3-[(4-[(3-chloropyridin-4-yl)amino]-2-{1-[2,6-difluoro-4-(2,2,2-trifluoroethoxy)benzyl]-1H-indazol-3-yl}pyrimidin-5-yl)oxy]propan-1-ol] are 13 nM, 98 nM, 110 nM, above 1000 nM and 6200 nM.
